Results: patent US11712434B2, “Compound having anti-cancer effect, and preparation method therefor and use thereof” (3D MEDICINES (BEIJING) CO., LTD., priority 2016, dated 2023)
Each block holds one compound with its values, some of them ahead of it.

How the values were obtained:
Experiment in all cases: Cell proliferation assay (Alamar Blue)
Assay type in all cases: cell-based
22RV1 = 22RV1 tumor cell line, 6 days culture
Outline: (§1)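 Cells seeded at 500~1×10^4/well (density optimised per line), dosed after 4 h at 37 °C, 5% CO2 with 9 concentrations in 3.16-fold dilution from 100 or 30 μM top. After 6 days, AlamarBlue 1-4 h, fluorescence Ex 560/Em 590 nm; IC50 by four-parameter nonlinear regression.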

Alexander cells = Alexander cells liver cancer cell line, 6 days culture
Outline: as §1

DLD1 = DLD1 tumor cell line, 6 days culture
Outline: as §1

HT1080 = HT1080 tumor cell line, 6 days culture
Outline: as §1

HUH6 = HUH6 liver cancer cell line, 6 days culture
Outline: as §1

HUH7 = HUH7 liver cancer cell line, 6 days culture
Outline: as §1

HuTu80 = HuTu80 tumor cell line, 6 days culture
Outline: as §1

JHH1 = JHH1 liver cancer cell line, 6 days culture
Outline: as §1

JHH4 = JHH4 liver cancer cell line, 6 days culture
Outline: as §1

JHH5 = JHH5 liver cancer cell line, 6 days culture
Outline: as §1

JHH7 = JHH7 liver cancer cell line, 6 days culture
Outline: as §1

LC-2-ad = LC-2-ad tumor cell line, 6 days culture
Outline: as §1

LNCAP-clone-FGC = LNCAP-clone-FGC tumor cell line, 6 days culture
Outline: as §1

MDA-MB-231 = MDA-MB-231 tumor cell line, 6 days culture
Outline: as §1

MDA-MB-435S = MDA-MB-435S tumor cell line, 6 days culture
Outline: as §1

NCI-H661 = NCI-H661 tumor cell line, 6 days culture
Outline: as §1

NCI-H716 = NCI-H716 tumor cell line, 6 days culture
Outline: as §1

SNU182 = SNU182 liver cancer cell line, 6 days culture
Outline: as §1

SNU398 = SNU398 liver cancer cell line, 6 days culture
Outline: as §1

SNU423 = SNU423 liver cancer cell line, 6 days culture
Outline: as §1

SNU449 = SNU449 liver cancer cell line, 6 days culture
Outline: as §1

SNU739 = SNU739 liver cancer cell line, 6 days culture
Outline: as §1

SNU761 = SNU761 liver cancer cell line, 6 days culture
Outline: as §1

SNU886 = SNU886 liver cancer cell line, 6 days culture
Outline: as §1

SW620 = SW620 tumor cell line, 6 days culture
Outline: as §1

T.T = T.T tumor cell line, 6 days culture
Outline: as §1

TE-15 = TE-15 tumor cell line, 6 days culture
Outline: as §1

TE-6 = TE-6 tumor cell line, 6 days culture
Outline: as §1

IC50 (22RV1): > 100 µM
IC50 (DLD1): > 100 µM
IC50 (HT1080): > 100 µM
IC50 (HUH6): > 100 µM
IC50 (HUH7): > 100 µM
IC50 (LNCAP-clone-FGC): > 100 µM
IC50 (MDA-MB-231): > 100 µM
IC50 (MDA-MB-435S): > 100 µM
IC50 (NCI-H661): > 100 µM
IC50 (NCI-H716): 82.7 µM
IC50 (SNU182): > 100 µM
IC50 (SNU398): > 100 µM
IC50 (SNU423): > 100 µM
IC50 (SNU449): > 100 µM
IC50 (SNU739): > 100 µM
IC50 (SNU761): > 100 µM
IC50 (SNU886): > 100 µM
IC50 (SW620): > 100 µM
Compound: Cc1ccc(F)c(NC(=O)Nc2ccc(-c3cccc4[nH]nc(NC(=O)CCCCCNC(=O)C[C@H](N)C(=O)N[C@@H](CCC(=O)O)C(=O)O)c34)cc2)c1 [Compound 4]
IC50 (Alexander cells): > 100 µM
IC50 (HuTu80): 75.4 µM
IC50 (JHH1): > 100 µM
IC50 (JHH4): > 100 µM
IC50 (JHH5): > 100 µM
IC50 (JHH7): > 100 µM
IC50 (LC-2-ad): > 100 µM
IC50 (T.T): > 100 µM
IC50 (TE-15): > 100 µM
IC50 (TE-6): > 100 µM

IC50 (22RV1; Homo sapiens, 144 h): > 100 µM
IC50 (DLD1; Homo sapiens, DLD-1, 144 h): > 100 µM
IC50 (HT1080; Homo sapiens, HT-1080, 144 h): > 100 µM
IC50 (HUH6; Homo sapiens, HuH-6, 144 h): > 100 µM
IC50 (HUH7; Homo sapiens, Huh-7, 144 h): > 100 µM
IC50 (LNCAP-clone-FGC; Homo sapiens, 144 h): > 100 µM
IC50 (MDA-MB-231; Homo sapiens, 144 h): > 100 µM
IC50 (MDA-MB-435S; Homo sapiens, 144 h): > 100 µM
IC50 (NCI-H661; Homo sapiens, 144 h): > 100 µM
IC50 (NCI-H716; Homo sapiens, 144 h): > 100 µM
IC50 (SNU182; Homo sapiens, SNU-182, 144 h): > 100 µM
IC50 (SNU398; Homo sapiens, SNU-398, 144 h): > 100 µM
IC50 (SNU423; Homo sapiens, SNU-423, 144 h): > 100 µM
IC50 (SNU449; Homo sapiens, SNU-449, 144 h): > 100 µM
IC50 (SNU739; SNU-739, 144 h): > 100 µM
IC50 (SNU761; 144 h): > 100 µM
IC50 (SNU886; SNU-886, 144 h): > 100 µM
IC50 (SW620; Homo sapiens, SW-620, 144 h): > 100 µM
Compound: Cc1ccc(F)c(NC(=O)Nc2ccc(-c3cccc4[nH]nc(NC(=O)CCCCCNC(=O)C[C@H](N)C(=O)N[C@@H](CCC(=O)N[C@@H](CCC(=O)N[C@@H](CCC(=O)N[C@@H](CCC(=O)O)C(=O)O)C(=O)O)C(=O)O)C(=O)O)c34)cc2)c1 [Compound 5]
IC50 (Alexander cells; 144 h): > 100 µM
IC50 (HuTu80; Homo sapiens, 144 h): > 100 µM
IC50 (JHH1; 144 h): > 100 µM
IC50 (JHH4; JHH-4, 144 h): > 100 µM
IC50 (JHH5; 144 h): > 100 µM
IC50 (JHH7; 144 h): > 100 µM
IC50 (LC-2-ad; Homo sapiens, 144 h): > 100 µM
IC50 (T.T; Homo sapiens, TT, 144 h): > 100 µM
IC50 (TE-15; Homo sapiens, 144 h): > 100 µM
IC50 (TE-6; Homo sapiens, 144 h): > 100 µM
